12 compounds from patent US20230219969A1 (priority 2020, published 2023) can be followed below.

For one assay, the system named is Rat cortical neurons. Description: Neurite Outgrowth in Primary Neuronal Cultures Assay (Procedure B). Type of assay: cell-based. The arrangement: key: A: Statistically significant mean increase as a percent of DMSO control at 10 μM or less; B: No statistically significant mean increase as a percent of DMSO control at 10 μM or less. The settings on record: 72 h, percent of DMSO control at 10 μM or less. An excerpt: Neurite Outgrowth in Primary Neuronal Cultures Assay (Procedure B). Changes in the pattern of neurite outgrowth have been implicated in psychiatric and neurodegenerative disorders as well as traumatic injuries. The discovery of new compounds that can positively affect neuritogenesis are important for developing new therapeutics for neurological diseases. Measurement of neurite outgrowth of rat cortical neurons using an automated image-based assay was used to determine the neuroplastic effects of the compounds of the present invention. The neurite outgrowth assay was performed at Neurofit SAS (France) as described below.
Pregnant Wistar rats (Janvier; France) were used for the study. They were delivered 6 days before their use. Upon arrival at Neurofit animal facility, they were housed one per cage and maintained in a room with controlled temperature (21-22° C.) and a reversed light-dark cycle (12 h/12 h; lights on: 17:30-05:30; lights off: 05:30-17:30) with food and water available ad libitum.
Female Wistar rats of 17 days gestation were killed by cervical dislocation and the fetuses were removed from the uterus. Their brains were placed in ice-cold medium of Leibovitz (L15, Gibco, Fisher bioblock, France). Cortices were dissected and meninges were carefully removed. The cortical neurons were dissociated by trypsinization for 30 min at 37° C. (trypsin-EDTA, Gibco) in presence of 0.1 mg/ml DNAse I (Roche, France). The reaction was stopped by addition of Dulbecco's Modified Eagle Medium (DMEM; Gibco) with 10% of fetal bovine serum (FBS; Gibco). The suspension was triturated with a 10-ml pipette and using a needle syringe 21G and centrifuged at 350×g for 10 min at room temperature. The pellet of dissociated cells was resuspended in a medium consisting of Neurobasal (Gibco) supplemented with 2% B27 supplement (Gibco), 0.5 mM L-Glutamine (Gibco), an antibiotic-antimicotic mixture. Viable cells were counted in a Neubauer cytometer using the trypan blue exclusion test (Sigma). Cells were seeded at a density of 10000 cells per well in 96-well plate (Costar) precoated with poly-L-lysine. Test compound at different concentrations were added to the cultures. Donepezil (positive control) was tested at 250 nM.
After 72 h (3 days) of plating, cultures were fixed with paraformaldehyde in PBS (4%, Sigma) for 30 min at 4° C. Then, cells were successively permeabilized with 0.1% Triton X100 for 30 min, saturated with PBS containing 3% of BSA and were incubated 1 h with anti-beta III tubulin antibody (Sigma) at 1/10 000 in PBS containing 0.5% of BSA. Cells were washed three times with PBS containing 0.5% of BSA, and they were incubated 1 h with goat anti-mouse antibody coupled with AF488 (Invitrogen A11001) diluted at 1/1000 in PBS containing 0.5% of BSA. Finally, nuclei were staining with DAPI 1 mg/ml at 1/1000 in PBS containing 0.5% of BSA. After rinsing with PBS, the plate was filmed and neurite networks were examined and analyzed using High-Content Screening (CellInsight, Thermo Scientific). The average number of neurites per neuron and the average total length of neurites per neuron were the main parameters analyzed. Analysis of data was performed using analysis of variance (ANOVA). The Fisher's Protected Least Significant Difference test was used for multiple comparisons. A p value<0.05 was considered significant. The software used is StatView 5.0 from SAS Institut.
In some embodiments, a compound of the present invention increases the pattern of neurite outgrowth. In some embodiments, a compound of the present invention increases neurite average length compared to a control. In some embodiments, a compound of the present invention increases neurite branch points compared to a control.

Assay [1] concerns the target T1, 5HT2A (Homo sapiens, UniProt P28223). Description: Serotonin 5-HT2A in vitro cellular IPOne agonism assay. Details: host or cells: CHO-K1. Type of assay: cell-based. The settings on record: CHO-K1 cells, IPOne HTRF; read-out: 5-HT2A IPOne Agonism Activity. Here is the method:
Serotonin 5-HT2A In Vitro Cellular IPOne Agonism Assay. The 5-HT2A IPOne HTRF assay was performed at Epics Therapeutics S.A. (Belgium, FAST-0505I) using conventional methods. Briefly, CHO-K1 cells expressing human recombinant 5-HT2A receptor grown to mid-log phase in culture media without antibiotics were detached with PBS-EDTA, centrifuged, and resuspended in medium without antibiotics buffer. 20,000 cells are distributed in a 96 well plate and incubated overnight at 37° C. with 5% CO2.
For agonist testing, the medium is removed and 20 μl of assay buffer plus 20 μl of test compound or reference agonist are added in each well. The plate is incubated for 60 min. at 37° C. with 5% CO2.
After addition of the lysis buffer containing IP1-d2 and anti-IP1 cryptate detection reagents, plates are incubated 1-hour at room temperature, and fluorescence ratios are measured according to the manufacturer specification, with the HTRF kit.
(§1) The compounds provided herein were tested in the Serotonin 5-HT2A and 5-HT2C in vitro radioligand binding and cellular IPOne agonism assays. The binding and agonism functional potencies of several compound provided herein compounds (as indicated by their IC50s or EC50s) are shown in Table 11.

Assay [2] addresses T1, 5HT2A. As to the kind of experiment: Serotonin 5-HT2A in vitro radioligand binding competition assay ([3H]-DOI). The settings on record: [3H]-DOI competition, membrane extracts; read-out: 5-HT2A Radioligand Binding Activity. Details: purchased Epics Therapeutics S.A. (Belgium) FAST-0505B. On the procedure:
Serotonin 5-HT2A In Vitro Radioligand Binding Competition Assay. The 5-HT2A radioligand binding competition assay was performed at Epics Therapeutics S.A. (Belgium, FAST-0505B) using conventional methods. Briefly, competition binding is performed in duplicate in the wells of a 96 well plate (Master Block, Greiner, 786201) containing binding buffer (optimized for each receptor), membrane extracts (amount of protein/well optimized for each receptor), radiotracer [^3H]-DOI (final concentration optimized for each receptor) and test compound. Nonspecific binding is determined by co-incubation with 200-fold excess of cold competitor. The samples are incubated in a final volume of 0.1 ml at a temperature and for a duration optimized for each receptor and then filtered over filter plates. Filters are washed six times with 0.5 ml of ice-cold washing buffer (optimized for each receptor) and 50 μl of Microscint 20 (Packard) are added in each well. The plates are incubated 15 min on an orbital shaker and then counted with a TopCount™ for 1 min/well.
as §1

T1 sequence (P28223 whole entry): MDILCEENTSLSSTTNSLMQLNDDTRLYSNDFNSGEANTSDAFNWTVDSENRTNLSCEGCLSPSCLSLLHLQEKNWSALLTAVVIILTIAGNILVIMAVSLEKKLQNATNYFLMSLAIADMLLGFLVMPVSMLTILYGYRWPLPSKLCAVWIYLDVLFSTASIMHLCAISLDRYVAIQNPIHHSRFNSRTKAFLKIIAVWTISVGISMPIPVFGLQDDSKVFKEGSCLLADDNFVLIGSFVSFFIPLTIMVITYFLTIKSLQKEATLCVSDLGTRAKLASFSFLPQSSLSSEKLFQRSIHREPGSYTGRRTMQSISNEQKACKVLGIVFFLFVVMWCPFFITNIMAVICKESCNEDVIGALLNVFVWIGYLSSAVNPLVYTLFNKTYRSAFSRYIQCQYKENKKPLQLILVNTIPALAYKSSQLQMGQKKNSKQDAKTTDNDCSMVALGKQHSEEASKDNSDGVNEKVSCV

With `COc1ccc2c(ccn2CC(C)(C)N(C)C)c1` [Example 1, 1-(5-methoxy-1H-indol-1-yl)-N,N,2-trimethylpropan-2-amine], in the assay with Rat cortical neurons, the “Increase in Neurite Length” value was “A” and the “Increase in Neurite Number” value is recorded as “A”. Also, at 5HT2A [1], the EC50 is greater than 10 µM. Besides, the IC50 at 5HT2A [2] is greater than 10 µM.
On to `COc1ccc2c(ccn2CC2(N(C)C)CC2)c1` [Example 2, 1-((5-methoxy-1H-indol-1-yl)methyl)-N,N-dimethylcyclopropan-1-amine], for which, in the assay with Rat cortical neurons, the “Increase in Neurite Length” value is “B” and the “Increase in Neurite Number” value is recorded as “B”. The EC50 on 5HT2A [1] was greater than 10 µM. The IC50 at 5HT2A [2] was greater than 10 µM.
As to `COc1ccc2c(c1)CCCN2CCN(C)C` [Example 9, 2-(6-methoxy-3,4-dihydroquinolin-1(2H)-yl)-N,N-dimethylethan-1-amine], in the assay with Rat cortical neurons, the “Increase in Neurite Length” value is “B” and the “Increase in Neurite Number” value was “B”. Also, the EC50 on 5HT2A [1] is greater than 10 µM. Also, the IC50 on 5HT2A [2] fell in the range of 0.101 to 1 µM.
Take `COc1ccc2c(ccn2[C@H]2C[C@@H](N(C)C)C2)c1` [Example 24, (1s,3s)-3-(5-methoxy-1H-indol-1-yl)-N,N-dimethylcyclobutan-1-amine]: in the assay on Rat cortical neurons, the “Increase in Neurite Length” value is reported as “A” and the “Increase in Neurite Number” value is reported as “B”. Also, at 5HT2A [1], the EC50 is greater than 10 µM. Further, on 5HT2A [2], the IC50 was greater than 10 µM.
Regarding `COc1ccc2c(ccn2[C@H]2C[C@H](N(C)C)C2)c1` [Example 25, (1r,3r)-3-(5-methoxy-1H-indol-1-yl)-N,N-dimethylcyclobutan-1-amine], in the assay on Rat cortical neurons, the “Increase in Neurite Length” value is recorded as “A” and the “Increase in Neurite Number” value was “B”. The EC50 at 5HT2A [1] is greater than 10 µM. Moreover, at 5HT2A [2], the IC50 is greater than 10 µM.
On to `C[C@H](Cn1ccc2cncnc21)N(C)C` [Example 27, (R)—N,N-dimethyl-1-(7H-pyrrolo[2,3-d]pyrimidin-7-yl)propan-2-amine], for which, in the assay with Rat cortical neurons, the “Increase in Neurite Length” value is on record as “A” and the “Increase in Neurite Number” value is recorded as “B”. Further, the EC50 on 5HT2A [1] is greater than 10 µM. Also, the IC50 on 5HT2A [2] is greater than 10 µM.
Regarding `COc1ccc2c(ccn2C[C@@H](C)N)n1` [Example 28, (R)-1-(5-methoxy-1H-pyrrolo[3,2-b]pyridin-1-yl)propan-2-amine], in the assay with Rat cortical neurons, the “Increase in Neurite Length” value is recorded as “A” and the “Increase in Neurite Number” value is on record as “B”. Also, the EC50 on 5HT2A [1] was greater than 10 µM. For the same compound, the IC50 at 5HT2A [2] is greater than 10 µM.
Consider `CN[C@H](C)Cn1ccc2nc(OC)ccc21` [Example 29, (R)-1-(5-methoxy-1H-pyrrolo[3,2-b]pyridin-1-yl)-N-methylpropan-2-amine], for which, in the assay with Rat cortical neurons, the “Increase in Neurite Length” value is reported as “A” and the “Increase in Neurite Number” value is listed as “B”. Also, on 5HT2A [1], the EC50 was greater than 10 µM. For the same compound, the IC50 at 5HT2A [2] is greater than 10 µM.
On to `COc1ccc2c(ccn2C[C@@H](C)N(C)C)n1` [Example 30, (R)-1-(5-methoxy-1H-pyrrolo[3,2-b]pyridin-1-yl)-N,N-dimethylpropan-2-amine], for which, in the assay with Rat cortical neurons, the “Increase in Neurite Length” value was “A” and the “Increase in Neurite Number” value is “A”. Moreover, on 5HT2A [1], the EC50 is greater than 10 µM. For the same compound, on 5HT2A [2], the IC50 is greater than 10 µM.
Turning to `COc1cc2ccn(C[C@@H](C)N)c2cn1` [Example 31, (R)-1-(5-methoxy-1H-pyrrolo[2,3-c]pyridin-1-yl)propan-2-amine], in the assay on Rat cortical neurons, the “Increase in Neurite Length” value is reported as “B” and the “Increase in Neurite Number” value is “B”. Besides, the EC50 at 5HT2A [1] lay in the range of 1 to 10 µM. In addition, the IC50 on 5HT2A [2] lay in the range of 1 to 10 µM.
In the case of `CN[C@H](C)Cn1ccc2cc(OC)ncc21` [Example 32, (R)-1-(5-methoxy-1H-pyrrolo[2,3-c]pyridin-1-yl)-N-methylpropan-2-amine], in the assay on Rat cortical neurons, the “Increase in Neurite Length” value was “B” and the “Increase in Neurite Number” value is listed as “B”. Also, the EC50 at 5HT2A [1] is greater than 10 µM. For the same compound, the IC50 on 5HT2A [2] is greater than 10 µM.
Turning to `COc1cc2ccn(C[C@@H](C)N(C)C)c2cn1` [Example 33, (R)-1-(5-methoxy-1H-pyrrolo[2,3-c]pyridin-1-yl)-N,N-dimethylpropan-2-amine], in the assay on Rat cortical neurons, the “Increase in Neurite Length” value is recorded as “A” and the “Increase in Neurite Number” value is “B”. In addition, the EC50 on 5HT2A [1] was greater than 10 µM. For the same compound, the IC50 at 5HT2A [2] is greater than 10 µM.
